The target of series [1] is T1, ATP-dependent translocase ABCB1 (Homo sapiens, UniProt P08183). Briefly: TP_TRANSPORTER: inhibition of Digoxin transepithelial transport (basal to apical) (Digoxin: 5 uM, Albendazole: 100 uM) in MDR1-expressing LLC-PK1 cells. The format is functional, cell-based. Particulars: pig, llc-pk1, 100 µM.
In series [2] the target is T1, ATP-dependent translocase ABCB1. Briefly: TP_TRANSPORTER: transepithelial transport (basal to apical) in MDR1-expressing LLC-PK1 cells. The format is functional, cell-based. The following applies: pig.
Series [3] has as its target P-glycoprotein 1 and 3 (MDR1a/MDR1b) (Mus musculus, UniProt P21447+P06795). Description: TP_TRANSPORTER: tissue distribution in mdr1a/1b(-/-) mouse. The format is functional, organism-based. Particulars: in vivo.

T1 sequence (P08183 whole entry): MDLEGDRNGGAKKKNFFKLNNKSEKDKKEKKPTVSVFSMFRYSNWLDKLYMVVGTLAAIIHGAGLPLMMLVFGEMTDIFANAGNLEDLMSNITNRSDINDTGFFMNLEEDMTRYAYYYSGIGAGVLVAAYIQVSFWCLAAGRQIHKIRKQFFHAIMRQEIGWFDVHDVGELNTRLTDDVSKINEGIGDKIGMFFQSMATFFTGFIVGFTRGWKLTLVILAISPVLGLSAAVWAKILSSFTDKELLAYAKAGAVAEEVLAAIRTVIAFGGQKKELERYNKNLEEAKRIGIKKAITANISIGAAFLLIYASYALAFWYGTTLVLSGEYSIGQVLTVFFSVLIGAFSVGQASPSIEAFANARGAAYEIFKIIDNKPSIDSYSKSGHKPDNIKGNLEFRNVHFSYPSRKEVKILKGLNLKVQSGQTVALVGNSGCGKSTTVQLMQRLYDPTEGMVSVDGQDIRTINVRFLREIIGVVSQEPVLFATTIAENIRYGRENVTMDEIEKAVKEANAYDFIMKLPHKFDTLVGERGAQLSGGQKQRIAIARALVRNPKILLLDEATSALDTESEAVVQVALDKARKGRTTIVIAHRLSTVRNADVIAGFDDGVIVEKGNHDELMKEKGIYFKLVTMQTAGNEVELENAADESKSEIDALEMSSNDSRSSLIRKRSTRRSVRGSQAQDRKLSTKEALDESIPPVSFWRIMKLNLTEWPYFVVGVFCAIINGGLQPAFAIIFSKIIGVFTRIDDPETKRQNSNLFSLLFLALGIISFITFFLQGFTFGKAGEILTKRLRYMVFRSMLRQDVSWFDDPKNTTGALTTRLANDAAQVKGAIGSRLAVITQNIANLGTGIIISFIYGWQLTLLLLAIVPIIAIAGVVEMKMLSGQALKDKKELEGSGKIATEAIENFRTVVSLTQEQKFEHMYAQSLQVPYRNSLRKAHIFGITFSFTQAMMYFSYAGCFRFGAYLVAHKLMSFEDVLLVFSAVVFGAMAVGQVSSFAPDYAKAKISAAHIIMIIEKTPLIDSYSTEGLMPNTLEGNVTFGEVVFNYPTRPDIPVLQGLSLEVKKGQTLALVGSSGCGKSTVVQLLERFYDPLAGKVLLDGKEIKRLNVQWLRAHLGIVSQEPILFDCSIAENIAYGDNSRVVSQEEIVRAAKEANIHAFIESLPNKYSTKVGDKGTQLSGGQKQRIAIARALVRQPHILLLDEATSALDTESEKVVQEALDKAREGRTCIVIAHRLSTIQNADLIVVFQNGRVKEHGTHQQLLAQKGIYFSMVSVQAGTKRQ

For the compound `CCCSc1ccc2nc(NC(=O)OC)[nH]c2c1` [ALBENDAZOLE], the Activity result in series [1] was “is not an inhibitor [-]”; in series [2], “is not a substrate [-]”; in series [3], “is not a substrate [-]”.

Source of the values: ChEMBL document CHEMBL2073953, “The anthelminthic agent albendazole does not interact with p-glycoprotein” (Drug Metab Dispos, 2002).
